From US20240261296A1, “THERAPEUTIC MODALITIES FOR INHIBITING PANCREATIC BETA CELL IMPAIRMENT AND TREATING DIABETES” (Hadasit Medical Research Serices & Development Ltd., priority 2021, published 2024)

How the values were obtained:
[1] = system: INS1 and INS2 genes; assay: insulin gene expression in palmitate-treated MIN6 cells (real-time PCR); type: cell-based, murine; conditions: 10 μM, in the presence of palmitate
Procedure: Real-time PCR: Total RNA from MIN6 cells or islets was extracted using TRIzol (Invitrogen, Carlsbad, CA, USA) and 2 μg of total RNA was converted to cDNA using SuperScript® III Reverse Transcriptase (Invitrogen, Carlsbad, CA, USA). 2.5-5 ng cDNA was used for each real-time PCR reaction. Real-time reaction was performed using Platinum SYBR Green qPCR SuperMix-UDG with ROX reference dye (Applied Biosystems). The primers used were as follows: GAPDH forward (F): […]; GAPDH reverse (R): […]; Ins1 (F): AACCCCCAGCCCTTAGTGA; (R): […]; Ins2 (F): […]; (R): […] (SEQ ID Nos: 1-6, respectively). Additional primers used as controls are directed to HPRT, as follows: HPRT (F): […] HPRT (R) […] (SEQ ID Nos: 7-8, respectively).
PA decreases the expression of β-cell specific genes, including insulin. The effect of the selected compounds on insulin gene expression was further tested in MIN6 cells. Rodent β-cells have two insulin genes (INS1 and INS2). MIN6 cells were exposed to C5 or L-798106 (10 μM) in the presence or absence of palmitic acid, and mRNAs insulin levels were measured by real-time PCR. FIGS. 6A-6B present the expression levels of INS1 and INS2 genes, respectively, normalized to GAPDH expression levels. Data of n=3±SEM is presented.

[2] = system: MIN6 cells; assay: rescue of MIN6 cells from palmitate-induced apoptosis (cleaved caspase 3 western blot; FACS SubG1); type: cell-based, murine; conditions: palmitic acid 0.3 mM, 48 hours; compared to L-798106
Procedure: (§1) Islet and cell culture: The pancreatic β-cell line MIN6, which is a clonal murine insulin-secreting line, was cultured in DMEM (Biological Industries, Beit Haemek, Israel) supplemented with 11 mM Glucose, 2 mM glutamine, 15% heat-inactivated fetal calf serum (FCS), 100 U/ml penicillin, 100 µg/ml streptomycin and 61 μM β-mercaptoethanol. Human islets were obtained from the European Consortium for Islet Transplantation (ECIT) at the San Raffaele Hospital and from the Niguarda Hospital, (Milan, Italy) and cultured in CMRL-1066 media (Biological Industries, Beit HaEmek, Israel) supplemented with 10% FCS, 5.5 mM glucose, 2 mM L-Glutamine, 100 U/ml penicillin, 100 μg/ml streptomycin and 150 μg/ml gentamycin. Palmitate was added to 1% FCS and 0.5% defatted BSA (Roche, Germany).
Western blotting: Cells were lyzed in Laemmli protein sample buffer, separated on SDS-polyacrylamide gel, and transferred to […] nitrocellulose membranes (Schleicher and Schuell, Dassel, Germany). After blocking in 5% dried skimmed milk, the membranes were first incubated with the appropriate antibodies against: cleaved caspase-3 (Asp175) (Cell Signaling Technology Danvers, MA) and α-tubulin (Sigma-Aldrich.) and then with horseradish peroxidase conjugated anti-rabbit or anti-mouse IgG, followed by analysis with an enhanced chemiluminescence detection kit (Biological Industries, Israel).
The remaining compounds were screened for the ability to rescue β-cells from palmitate-induced apoptosis as compared to the commercial EP3 antagonist L-798106 by measuring the levels of the cleaved caspase 3 apoptotic marker, using Western Blot analysis (FIG. 1). […] Cell extracts were analyzed by western blotting for the presence of cleaved caspase 3 as compared to α-Tubulin.
The ability of the compounds to rescue β-cells from apoptosis was also evaluated using FACS analysis and measuring the SubG1 population (FIG. 2). […] Collected cells were analyzed by FACS and the SubG1 fractions (representing apoptotic cell products or components were compared. The average of 4-6 independent experiments is presented in FIG. 2.

[3] = system: human islet cells; assay: Caspase-Glo 3/7 assay in palmitic acid-treated human islets; type: cell-based; design: rescuing human islet cells from apoptosis, compared with L-798106 / inhibiting or reversing palmitate-induced apoptosis in pancreatic islets of both human donors / inhibition of palmitate-induced apoptosis in human islets, donor 1: dose or concentration left out as unconfirmed; conditions: for rescuing human islet cells from apoptosis, compared with L-798106: two human donors
Procedure: as §1
Next, the ability of the compounds to rescue human islet cells from palmitate-induced apoptosis was determined. To this end, the Caspase-Glo 3/7 assay reagent (Promega) was used for caspase 3/7 detection in palmitic acid-treated cells. The reagent provides a proluminescent caspase-3/7 substrate, which contains the tetrapeptide sequence DEVD, in combination with luciferase and a cell-lysing agent. The addition of the reagent directly to the wells results in cell lysis, followed by caspase cleavage of the DEVD substrate, and the generation of luminescence.
Accordingly, human islets from two donors were exposed to the various compounds or to L-798106 for 48 h in the presence of palmitic acid, and the bioluminescence was measured as compared to control cells. FIGS. 3A-3B show the results of the treatment with […] of the compounds in two human donors (FIG. 3A—donor 1, FIG. 3B—donor 2). PA: Palmitate; L: L-798106; RLU: Relative Light Units. The results are average of triplicates or quadruplicates ±SEM (except in islets from L-798106 treated donor 2, representing duplicates).
Next, various concentrations of the compounds were tested in human pancreatic islet cells. Cells obtained from the first healthy donor (donor 1) were incubated in the presence or absence of PA with C13, C5 or L-798106 (L) at concentrations of 5, 2.5 and 0.5 μM. Caspase 3/7 enzymatic activity was measured as described above. The enzymatic activity is presented in FIG. 5A for 5 μM, FIG. 5B for 2.5 μM and FIG. 5C for 0.5 μM as relative light units (RLU/μg protein) and the graphs represent the average of n=3-4.

Structure (SMILES)	effect on insulin gene expression relative to L-798106 [1]	insulin gene expression (INS1, INS2) normalized to GAPDH [1]	rescue of β-cells from palmitate-induced apoptosis (cleaved caspase 3; SubG1 population) [2]	inhibition of palmitate-induced apoptosis in human islets, compared with L-798106 ([3]; donor 1, 5, 2.5 and 0.5 μM)	rescuing human islet cells from apoptosis, compared with L-798106 ([3]; palmitic acid, 48 h)	efficacy at all tested concentrations ([3]; donor 1, 5, 2.5 and 0.5 μM)	inhibiting or reversing palmitate-induced apoptosis in pancreatic islets of both human donors ([3]; palmitic acid, 48 h)
CC[C@H](C)c1ccc(S(=O)(=O)Nc2ccccc2C(=O)N2C[C@@H](C)O[C@@H](C)C2)cc1 [Compound C5, 4-((S)-sec-butyl)-N-(2-((2S,6R)-2,6-dimethylmorpholine-4-carbonyl)phenyl)benzenesulfonamide]	appeared to be more significant	enhanced insulin gene expression	exceptionally high efficacy	to a greater extent than L-798106	to a greater extent than the EP3 antagonist L-798106	–	–
CC[C@@H]1CC[C@H](C)N1C(=O)c1cccc(NS(=O)(=O)c2ccc(C)c(F)c2)c1 [Compound C13, N-(3-((2R,5S)-2-ethyl-5-methylpyrrolidine-1-carbonyl)phenyl)-3-fluoro-4-methylbenzenesulfonamide]	–	–	exceptionally high efficacy	to a greater extent than L-798106	to a greater extent than the EP3 antagonist L-798106	remarkable efficacy	particularly high efficacy
COc1ccc(Br)cc1S(=O)(=O)NC(=O)/C=C/c1ccccc1Cc1ccc2ccccc2c1 [Compound L-798106, (2E)-N-[(5-bromo-2-methoxyphenyl)sulfonyl]-3-[2-(2-naphthalenylmethyl)phenyl]-2-propenamide, reference compound]	–	enhanced insulin gene expression	–	–	–	–	–
